Test results reported in US20190105337A1, “METHODS OF TREATING BACTERIAL INFECTIONS” (priority 2015, published 2019).
Like-named read-outs stand apart in the source and are kept apart here. Each block holds one molecule with its values, some of them ahead of it.

Legend:
[1] = human, in vivo
Method: Forty one subjects were enrolled in 5 groups based on their degree of renal insufficiency. The five cohorts included: patients with normal renal function (CrCl≥90 ml/min), mild renal impairment (CrCl 60-89 ml/min), moderate renal impairment (CrCl 30-<60 ml/min), severe renal impairment (CrCl<30 ml/min, and patients with end stage renal disease requiring hemodialysis. Patients on renal replacement therapy other than standard hemodialysis (including continuous veno-venous hemofiltration, continuous veno-venous hemodialysis and continuous renal replacement therapy) were not studied.

[2] = Example 1: pharmacokinetics of Compound I, single (SD) and multiple (MD, q8h 7 days) ascending doses, 3-hour IV infusion, healthy adult subjects; assay type: in vivo, human; details: for CL renal / AUC(0-t) / Cmax / Tmax / half-life / AUC(0-inf) / dose excreted: human, intravenous; for CL renal: plasma and urine; for AUC(0-t) / Cmax / Tmax / half-life / AUC(0-inf): plasma; for dose excreted: urine
Method: 56 healthy subjects were enrolled into one of 7 cohorts of 8 subjects each in the single ascending dose phase (250 mg, 500 mg, 750 mg, 1000 mg, 1250 mg, 1500 mg and 2000 mg). Thirty-two additional subjects were then enrolled into one of 4 cohorts in the multiple-dose phase (250 mg, 1000 mg, 1500 mg, and 2000 mg, given q8 h for 7 days). […] All infusions were administered over 3 hours. Plasma and urine samples were obtained after single or multiple doses and assayed for Compound I content using a validated HPLC/MS method.

[3] = In vitro hollow fiber model: pharmacokinetic parameters of meropenem and Compound I in the central compartment (Tables E, F)
Method: (§1) In Vitro PK-PD Model: Six medium sized hollow-fiber cartridges (FiberCell Systems) were used per experiment. Three strains studied in duplicate were used for each experiment. Log-phase cells were inoculated and incubated for 2 hours prior to the start of treatment to achieve about 10^8 CFU/mL. Target PK parameters are listed in Tables E and F. The exposures were based on the published literatures disclosed in Example 2. Samples were collected from the central compartment for the determination of drug concentrations over a 32 hour period and were analyzed using an LC-MS/MS method.

[4] = system: P. aeruginosa strains; assay type: cell-based, Pseudomonas aeruginosa
Method: The pharmacokinetics simulation was based on data from the clinical study disclosed in Example 2.
as §1

[5] = clinical; details: human, in vivo
[6] = Example 2: treatment emergent adverse events, single dose phase; assay type: in vivo, human; details: Pooled Meropenem alone
Method: The combination of both drugs was administered on day 7. All drugs were infused over 3 hours. Plasma and urine samples were obtained and assayed using validated HPLC/MS methods.
No subjects discontinued due to AEs and no SAEs were observed.

[7] = cited from earlier work
[8] = combination Compound I/meropenem (Table F)

- non-renal clearance [1]: no measurable non-renal clearance
- CLNon-R ([2]; 250 mg multiple dose): 2.49 L/h
- CLNon-R ([2]; 250 mg single dose): 2.85 L/h
- CLNon-R ([2]; 500 mg single dose): 2.55 L/h
- CLNon-R ([2]; 750 mg single dose): 1.72 L/h
- CLNon-R ([2]; 1000 mg multiple dose): 2.31 L/h
- CLNon-R ([2]; 1000 mg single dose): 0.97 L/h
- CLNon-R ([2]; 1250 mg single dose): 1.33 L/h
- CLNon-R ([2]; 1500 mg multiple dose): 1.68 L/h
- CLNon-R ([2]; 1500 mg single dose): 1.42 L/h
- CLNon-R ([2]; 2000 mg multiple dose): 1.15 L/h
- CLNon-R ([2]; 2000 mg single dose): -1.07 L/h
- exposure (Cmax and AUC) versus dose ([2]; following single and multiple doses): increased in a dose-proportional manner
- CL renal ([2]; 250 mg, 250 mg multiple dose): 212 mL/min
- CL renal ([2]; 250 mg, 250 mg single dose): 212 mL/min
- CL renal ([2]; 500 mg, 500 mg single dose): 197 mL/min
- CL renal ([2]; 750 mg, 750 mg single dose): 217 mL/min
- CL renal ([2]; 1000 mg, 1000 mg multiple dose): 195 mL/min
- CL renal ([2]; 1000 mg, 1000 mg single dose): 202 mL/min
- CL renal ([2]; 1250 mg, 1250 mg single dose): 192 mL/min
- CL renal ([2]; 1500 mg, 1500 mg multiple dose): 187 mL/min
- CL renal ([2]; 1500 mg, 1500 mg single dose): 197 mL/min
- CL renal ([2]; 2000 mg, 2000 mg multiple dose): 213 mL/min
- CL renal ([2]; 2000 mg, 2000 mg single dose): 252 mL/min
- AUC(0-t) ([2]; 250 mg, 250 mg multiple dose): 16300 ng·h/mL
- Cmax ([2]; 250 mg, 250 mg multiple dose): 4810 ng/mL
- Tmax ([2]; 250 mg, 250 mg multiple dose): 2.25 h
- half-life ([2]; 250 mg, 250 mg multiple dose, read-out: T1/2 (converted)): 1.17 h
- AUC(0-t) ([2]; 250 mg, 250 mg single dose): 16200 ng·h/mL
- Cmax ([2]; 250 mg, 250 mg single dose): 5030 ng/mL
- Tmax ([2]; 250 mg, 250 mg single dose): 3.02 h
- half-life ([2]; 250 mg, 250 mg single dose, read-out: T1/2 (converted)): 1.17 h
- AUC(0-t) ([2]; 500 mg, 500 mg single dose): 34500 ng·h/mL
- Cmax ([2]; 500 mg, 500 mg single dose): 9970 ng/mL
- Tmax ([2]; 500 mg, 500 mg single dose): 3 h
- half-life ([2]; 500 mg, 500 mg single dose, read-out: T1/2 (converted)): 1.35 h
- AUC(0-t) ([2]; 750 mg, 750 mg single dose): 50600 ng·h/mL
- Cmax ([2]; 750 mg, 750 mg single dose): 15300 ng/mL
- Tmax ([2]; 750 mg, 750 mg single dose): 3 h
- half-life ([2]; 750 mg, 750 mg single dose, read-out: T1/2 (converted)): 1.24 h
- AUC(0-t) ([2]; 1000 mg, 1000 mg multiple dose): 74600 ng·h/mL
- Cmax ([2]; 1000 mg, 1000 mg multiple dose): 21300 ng/mL
- Tmax ([2]; 1000 mg, 1000 mg multiple dose): 3 h
- half-life ([2]; 1000 mg, 1000 mg multiple dose, read-out: T1/2 (converted)): 1.43 h
- AUC(0-t) ([2]; 1000 mg, 1000 mg single dose): 76700 ng·h/mL
- Cmax ([2]; 1000 mg, 1000 mg single dose): 21800 ng/mL
- Tmax ([2]; 1000 mg, 1000 mg single dose): 3.01 h
- half-life ([2]; 1000 mg, 1000 mg single dose, read-out: T1/2 (converted)): 1.41 h
- AUC(0-t) ([2]; 1250 mg, 1250 mg single dose): 97200 ng·h/mL
- Cmax ([2]; 1250 mg, 1250 mg single dose): 27800 ng/mL
- Tmax ([2]; 1250 mg, 1250 mg single dose): 3 h
- half-life ([2]; 1250 mg, 1250 mg single dose, read-out: T1/2 (converted)): 1.32 h
- AUC(0-t) ([2]; 1500 mg, 1500 mg multiple dose): 118000 ng·h/mL
- Cmax ([2]; 1500 mg, 1500 mg multiple dose): 33400 ng/mL
- Tmax ([2]; 1500 mg, 1500 mg multiple dose): 3 h
- half-life ([2]; 1500 mg, 1500 mg multiple dose, read-out: T1/2 (converted)): 1.65 h
- AUC(0-t) ([2]; 1500 mg, 1500 mg single dose): 110000 ng·h/mL
- Cmax ([2]; 1500 mg, 1500 mg single dose): 32900 ng/mL
- Tmax ([2]; 1500 mg, 1500 mg single dose): 3.01 h
- half-life ([2]; 1500 mg, 1500 mg single dose, read-out: T1/2 (converted)): 1.4 h
- AUC(0-t) ([2]; 2000 mg, 2000 mg multiple dose): 145000 ng·h/mL
- Cmax ([2]; 2000 mg, 2000 mg multiple dose): 40900 ng/mL
- Tmax ([2]; 2000 mg, 2000 mg multiple dose): 2.25 h
- half-life ([2]; 2000 mg, 2000 mg multiple dose, read-out: T1/2 (converted)): 1.66 h
- AUC(0-t) ([2]; 2000 mg, 2000 mg single dose): 140000 ng·h/mL
- Cmax ([2]; 2000 mg, 2000 mg single dose): 41600 ng/mL
- Tmax ([2]; 2000 mg, 2000 mg single dose): 3.02 h
- half-life ([2]; 2000 mg, 2000 mg single dose, read-out: T1/2 (converted)): 1.51 h
- half-life ([2]; observed, single and multiple doses, read-out: terminal half-life): < 2 h
- AUC(0-inf) ([2]; 250 mg single dose): 16600 ng·h/mL
- AUC(0-inf) ([2]; 500 mg single dose): 35600 ng·h/mL
- AUC(0-inf) ([2]; 750 mg single dose): 51800 ng·h/mL
- AUC(0-inf) ([2]; 1000 mg single dose): 79300 ng·h/mL
- AUC(0-inf) ([2]; 1250 mg single dose): 100000 ng·h/mL
- AUC(0-inf) ([2]; 1500 mg single dose): 114000 ng·h/mL
- AUC(0-inf) ([2]; 2000 mg single dose): 144000 ng·h/mL
- dose excreted ([2]; 250 mg, 250 mg multiple dose, read-out: Urinary Recovery): 79.9%
- dose excreted ([2]; 250 mg, 250 mg single dose, read-out: Urinary Recovery): 81.3%
- dose excreted ([2]; 500 mg, 500 mg single dose, read-out: Urinary Recovery): 80.3%
- dose excreted ([2]; 750 mg, 750 mg single dose, read-out: Urinary Recovery): 86.4%
- dose excreted ([2]; 1000 mg, 1000 mg multiple dose, read-out: Urinary Recovery): 82.8%
- dose excreted ([2]; 1000 mg, 1000 mg single dose, read-out: Urinary Recovery): 89.9%
- dose excreted ([2]; 1250 mg, 1250 mg single dose, read-out: Urinary Recovery): 86.9%
- dose excreted ([2]; 1500 mg, 1500 mg multiple dose, read-out: Urinary Recovery): 86.8%
- dose excreted ([2]; 1500 mg, 1500 mg single dose, read-out: Urinary Recovery): 86.6%
- dose excreted ([2]; 2000 mg, 2000 mg multiple dose, read-out: Urinary Recovery): 91.6%
- dose excreted ([2]; 2000 mg, 2000 mg single dose, read-out: Urinary Recovery): 105%
- dose excreted ([2]; over 48 hours across all dose groups, read-out: Urinary recovery): ≥ 80%
- accumulation with multiple doses ([2]; q8h for 7 days): no evidence of accumulation
- AUC, Average Compound I Actual [3, 8]: 105300 ng·h/mL
- Cmax, Average Compound I Actual [3, 8]: 26400 ng/mL
- Half-Life, Average Compound I Actual [3, 8]: 1.5 h
SMILES: O=C(O)C[C@@H]1CC[C@H](NC(=O)Cc2cccs2)B(O)O1 [Compound I]

SMILES: C[C@@H](O)[C@H]1C(=O)N2C(C(=O)O)=C(S[C@@H]3CN[C@H](C(=O)N(C)C)C3)[C@H](C)[C@H]12 [meropenem, Meropenem]
- non-renal clearance [1]: non-renal clearance assumes a greater proportion of total clearance
- efficacy, number of strains [4]: effective against 2 out of 3 strains
- Change in Log CFU over 32 hours ([4]; P. aeruginosa PAM3377, human equivalent 2 g q8h by 3 hour infusion): 3.7 Log CFU
- AUC ([5]; Meropenem exposure (AUC)): 211000 ng·h/mL
- clearance ([5]; weight adjusted clearance (Cl)): 2.33 mL/min/kg
- Headache, % [6]: 37%
- Infusion site pain, % [6]: 10%
- PK catheter site hematoma, % [6]: 21%
- PK catheter site pain, % [6]: 10%
- Subjects with TEAEs, % [6]: 95%
- AUC, Average Meropenem Actual [3, 8]: 131500 ng·h/mL
- Cmax, Average Meropenem Actual [3, 8]: 33500 ng/mL
- Half-Life, Average Meropenem Actual [3, 8]: 1.4 h
- AUC, Average Meropenem Actual ([3]; meropenem alone (Table E)): 129000 ng·h/mL
- Cmax, Average Meropenem Actual ([3]; meropenem alone (Table E)): 33900 ng/mL
- Half-Life, Average Meropenem Actual ([3]; meropenem alone (Table E)): 1.3 h
- mean meropenem ELF concentration ([7]; 500 mg dose, 1 hour): 5.3 µg/mL
- mean meropenem ELF concentration ([7]; 500 mg dose, 2 hours): 2.7 µg/mL
- mean meropenem ELF concentration ([7]; 500 mg dose, 3 hours): 1.9 µg/mL
- mean meropenem ELF concentration ([7]; 500 mg dose, 5 hours): 0.7 µg/mL
- mean meropenem ELF concentration ([7]; 500 mg dose, 8 hours): 0.2 µg/mL
- intrapulmonary penetration based on AUC0-8 of ELF and total plasma ([7]; 500 mg dose): approximately 43%
- mean meropenem ELF concentration ([7]; 1 gram dose, 1 hour): 7.7 µg/mL
- mean meropenem ELF concentration ([7]; 1 gram dose, 2 hours): 4.0 µg/mL
- mean meropenem ELF concentration ([7]; 1 gram dose, 3 hours): 1.7 µg/mL
- mean meropenem ELF concentration ([7]; 1 gram dose, 5 hours): 0.8 µg/mL
- mean meropenem ELF concentration ([7]; 1 gram dose, 8 hours): 0.03 µg/mL
- intrapulmonary penetration based on AUC0-8 of ELF and total plasma ([7]; 1 gram dose): ~28%
- mean meropenem ELF concentration ([7]; 2 gram dose, 1-hour sampling time): 2.9 µg/mL
- mean meropenem ELF concentration ([7]; 2 gram dose, 3-hour sampling time): 2.8 µg/mL
